Test results from patent US9763572B2, “Quantitative pupillometry as a bedside predictor of postoperative respiratory depression” (Children's Hospital Medical Center, priority 2015, dated 2017).

Experiments:
[1] = Blood morphine, M3G and M6G concentrations in the recovery room (LC-MS/MS) in children undergoing tonsillectomy; conditions: mean±SD
pupil [2] = conditions: used as prophylactic antiemetic; cited from earlier work
pupil [3] = assay: Serial quantitative pupillometry after intraoperative morphine in the pediatric study; assay type: in vivo, children
[4] = test system: children undergoing tonsillectomy; assay: Postoperative respiratory depression and its association with ABCB1 genetic variants in children given morphine; conditions: per added copy of minor allele (G) of ABCB1 rs9282564; 263 children; 95% CI: 2.1-10.8, p=0.0002
[5] = children who did not have respiratory depression with prolonged PACU stay
[6] = children who had respiratory depression and prolonged PACU stay due to respiratory depression

SMILES | levels in the recovery room [1, 5] [pg/mL] | levels in the recovery room [1, 6] [pg/mL] | interference with quantitative pupillometry responses (pupil [2]) | pupillary maximum constriction velocity (MCV) vs blood morphine concentration (pupil [3]; FIG. 3, perioperative time points) | pupillary measures (maximum and minimum pupillary sizes, constriction percentage, maximum constriction velocity) (pupil [3]; after intraoperative morphine bolus, under general anesthesia, FIGS. 2A-2D) | PACU pupillary measures compared to the baseline values (pupil [3]; recovery room (PACU) vs preoperative baseline) | increase in odds of a prolonged hospital stay due to postoperative respiratory depression [4] [fold]
CN1CC[C@]23c4c5ccc(O[C@@H]6O[C@H](C(=O)O)[C@@H](O)[C@H](O)[C@H]6O)c4O[C@H]2[C@@H](O)C=C[C@H]3[C@H]1C5 [M3G, Morphine-3 Glucuronide] | 60.7 ± 45.1 | 43.1 ± 37 | – | – | – | – | –
CN1CC[C@]23c4c5ccc(O)c4O[C@H]2[C@@H](O[C@@H]2O[C@H](C(=O)O)[C@@H](O)[C@H](O)[C@H]2O)C=C[C@H]3[C@H]1C5 [M6G, Morphine-6 Glucuronide] | 11.7 ± 7.1 | 9.1 ± 3.9 | – | – | – | – | –
Cc1nccn1CC1CCc2c(c3ccccc3n2C)C1=O (centres unmarked) [ondansetron] | – | – | does not interfere with quantitative pupillometry responses | – | – | – | –
CN1CC[C@]23c4c5ccc(O)c4O[C@H]2[C@@H](O)C=C[C@H]3[C@H]1C5 [morphine] | 8400 ± 7900 | 2250 ± 2300 | – | decreased as blood morphine concentration increased | incremental reductions in all these pupillary measures | residual depressive effects | 4.7
